Laboratory results reported in US7396837B2, “Antitumoral analogs of lamellarins” (Pharma Mar, S.A.U., priority 2002, dated 2008).
Where two headings read alike, the source gives them in different places.

How the values were obtained:
[1] = SRB colorimetric cell growth inhibition assay, H-MEC-1; assay type: cell-based; settings: human, H-MEC-1, cell killing (cytotoxic effect), read-out: LC50 H-MEC-1
Outline: (§1)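 Growth inhibition (GI), total growth inhibition (TGI, cytostatic) and lethal concentration (LC, cytotoxic) come from an SRB-based colorimetric measure of growth and viability. Data are triplicate-well means ± SD.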

H-MEC-1 [2] = assay: as above; assay type: cell-based; settings: Homo sapiens, HMEC-1, H-MEC-1; for GI50: GI=growth inhibition, read-out: GI50 H-MEC-1; for IC (TGI): total growth inhibition (cytostatic effect), read-out: TGI H-MEC-1
Outline: as §1

human topoisomerase I = target: T1, human topoisomerase I (Homo sapiens, UniProt P11387); assay: Topoisomerase I cleavage of radiolabeled 117-bp DNA fragment; assay type: biochemical; settings: 117-bp DNA restriction fragment 3' end-labeled; for topoisomerase I-mediated DNA cleavage sites / cleavage profile: sequencing-type polyacrylamide gels
T1 sequence (P11387 1-765): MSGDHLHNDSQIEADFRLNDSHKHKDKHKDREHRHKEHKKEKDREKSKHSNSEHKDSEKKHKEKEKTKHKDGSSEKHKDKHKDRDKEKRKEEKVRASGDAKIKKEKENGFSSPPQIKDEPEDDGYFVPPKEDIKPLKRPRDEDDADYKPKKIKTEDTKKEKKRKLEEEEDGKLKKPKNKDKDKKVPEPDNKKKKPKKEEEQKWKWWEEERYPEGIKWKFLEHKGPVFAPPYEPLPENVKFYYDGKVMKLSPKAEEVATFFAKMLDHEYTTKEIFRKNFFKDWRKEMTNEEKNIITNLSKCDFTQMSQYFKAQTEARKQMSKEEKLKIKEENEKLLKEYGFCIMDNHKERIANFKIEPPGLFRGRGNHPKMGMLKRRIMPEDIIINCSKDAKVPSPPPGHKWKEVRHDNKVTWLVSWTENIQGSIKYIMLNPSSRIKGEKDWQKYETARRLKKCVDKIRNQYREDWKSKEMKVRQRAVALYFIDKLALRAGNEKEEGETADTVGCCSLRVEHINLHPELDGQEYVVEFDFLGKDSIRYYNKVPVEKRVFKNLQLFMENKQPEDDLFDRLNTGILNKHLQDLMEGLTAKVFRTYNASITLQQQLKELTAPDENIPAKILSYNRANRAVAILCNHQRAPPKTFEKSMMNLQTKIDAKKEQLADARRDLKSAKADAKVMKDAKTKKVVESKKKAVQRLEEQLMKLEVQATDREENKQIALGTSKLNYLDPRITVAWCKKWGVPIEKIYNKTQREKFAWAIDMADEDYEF
From the text: Two assays, based on DNA relaxation and DNA cleavage (Bailly, C. DNA relaxation and cleavage assays to study topoisomerase I inhibitors. Methods Enzymol. 2001, 340, 610-623) were used evaluate the effects of the lamellarin analogs on the catalytic activity of human topoisomerase I.
A second assay, based on the cleavage of a radiolabeled DNA substrate by topoisomerase I, was used to confirm that the cationic lamellarin derivatives do effectively function as topoisomerase I poisons. A 117-bp DNA restriction fragment uniquely end-labeled at the 3′ end was subjected to cleavage by topoisomerase I in the presence of the different compounds and the resulting DNA cleavage products were resolved on sequencing-type polyacrylamide gels. The advantage of this assay is to detect the cleavage sites and to locate their positions with nucleotide resolution, providing thus information on the site selectivity of cleavage.

SKOV-3 [3] = assay: SRB colorimetric cell growth inhibition assay, SKOV-3; assay type: cell-based; settings: Homo sapiens; for GI50: SK-OV-3, SKOV-3, GI=growth inhibition, read-out: GI50 SKOV-3; for LC50 (concentration causing 50% net cell killing) / IC (TGI): SK-OV-3, SKOV-3; for LC50 (concentration causing 50% net cell killing): cell killing (cytotoxic effect), read-out: LC50 SKOV-3; for IC (TGI): total growth inhibition (cytostatic effect), read-out: TGI SKOV-3
Outline: as §1

HeLa-APL = assay: SRB colorimetric cell growth inhibition assay, HeLa-APL (aplidine resistant); assay type: cell-based; settings: Homo sapiens
Outline: (§2)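 Triplicate-well SRB colorimetry following continuous sample exposure of human tumour cells; reported parameters are GI, TGI for cytostatic effect, and LC for cytotoxic effect.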

HeLa = assay: SRB colorimetric cell growth inhibition assay, HeLa; assay type: cell-based; settings: Homo sapiens, HeLa
Outline: as §2

SKOV-3 [4] = assay: SRB colorimetric cell growth inhibition assay, SKOV-3; assay type: cell-based; settings: Homo sapiens; for GI50: SK-OV-3, SKOV-3, GI=growth inhibition, read-out: GI50 SKOV-3; for CC50 / IC (TGI): SK-OV-3, SKOV-3; for CC50: LC=cell killing (cytotoxic effect), read-out: LC50 SKOV-3; for IC (TGI): TGI=total growth inhibition (cytostatic effect), read-out: TGI SKOV-3
Outline: (§3)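 Growth and viability quantified by sulforhodamine B staining in 96-well microplates. Triplicate wells give mean ± SD; derived endpoints are GI, TGI (cytostatic) and LC (cytotoxic).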

[5] = SRB colorimetric cell growth inhibition assay, H-MEC-1; assay type: cell-based; settings: human, H-MEC-1 cells, H-MEC-1; LC=cell killing (cytotoxic effect); read-out: LC50 H-MEC-1
Outline: as §3

H-MEC-1 [6] = assay: as above; assay type: cell-based; settings: Homo sapiens, HMEC-1, H-MEC-1; for GI50: GI=growth inhibition; for IC (TGI): TGI=total growth inhibition (cytostatic effect), read-out: TGI H-MEC-1
Outline: as §3

SMILES | LC50 (concentration giving 50% net cell killing) ([1]; H-MEC-1 cells) [nM] | GI50 (H-MEC-1 [2]) [nM] | IC (TGI) (H-MEC-1 [2]) [nM] | topoisomerase I-mediated DNA cleavage sites / cleavage profile (human topoisomerase I) | GI50 (SKOV-3 [3]) [nM] | LC50 (concentration causing 50% net cell killing) (SKOV-3 [3]) [nM] | IC (TGI) (SKOV-3 [3]) [nM] | stimulation of DNA cleavage by topoisomerase I (radiolabeled DNA substrate) (human topoisomerase I) | GI50 (SKOV-3 [4]) [nM] | CC50 (SKOV-3 [4]) [nM] | IC (TGI) (SKOV-3 [4]) [nM] | CC50 [5] [nM] | GI50 (H-MEC-1 [6]) [nM] | IC (TGI) (H-MEC-1 [6]) [nM] | also measured
COc1cc(-c2c3c4cc(OC)c(OC(=O)[C@@H]5CCCN5)cc4oc(=O)c3n3ccc4cc(OC(=O)[C@@H]5CCCN5)c(OC)cc4c23)ccc1OC(=O)[C@@H]1CCCN1 [Compound 33] | 46.3 | 9.8 | 21.4 | Cleavage profiles identical to that of 3 | 39.1 | 5030 | 228 |  |  |  |  |  |  |  | 
COc1cc(-c2c3c4cc(OC)c(OC(=O)[C@@H](N)C(C)C)cc4oc(=O)c3n3ccc4cc(OC(=O)[C@@H](N)C(C)C)c(OC)cc4c23)ccc1OC(=O)[C@@H](N)C(C)C [Compound 36] | 1350 | 2.65 | 8.6 | Cleavage profiles identical to that of 3 | 39.2 | 5890 | 297 | no difference between the (L) (36) and (D) (17) Val isomers |  |  |  |  |  |  | 
COc1cc(-c2c3n(c4c(=O)oc5cc(OC(=O)[C@H](C)NC(=O)[C@H](C)NC(=O)OC(C)(C)C)c(OC)cc5c24)CCc2cc(OC(=O)[C@H](C)NC(=O)[C@H](C)NC(=O)OC(C)(C)C)c(OC)cc2-3)ccc1OC(=O)[C@H](C)NC(=O)[C@H](C)NC(=O)OC(C)(C)C [Compound 7] |  |  |  |  |  |  |  | stimulate DNA cleavage by the enzyme |  |  |  |  |  |  | GI50 (HeLa-APL; read-out: GI50 HELA-APL): 1850 nM; CC50 (HeLa-APL; read-out: LC50 HELA-APL): 7240 nM; IC (TGI) (HeLa-APL; read-out: TGI HELA-APL): 3660 nM; GI50 (HeLa; read-out: GI50 HELA): 830 nM; CC50 (HeLa; read-out: LC50 HELA): 4420 nM; IC (TGI) (HeLa; read-out: TGI HELA): 1910 nM
COc1cc(-c2c3c4cc(OC)c(OC(=O)[C@@H](N)CC(C)C)cc4oc(=O)c3n3ccc4cc(OC(=O)[C@@H](N)CC(C)C)c(OC)cc4c23)ccc1OC(=O)[C@@H](N)CC(C)C [Compound 39] |  |  |  | Cleavage profiles identical to that of 3 |  |  |  |  | 63.4 | 8470 | 8470 | 8470 | 6.98 | 8470 | 
COc1cc(-c2c3n(c4c(=O)oc5cc(OC(=O)[C@@H](N)Cc6c[nH]c7ccccc67)c(OC)cc5c24)CCc2cc(OC(=O)[C@@H](N)Cc4c[nH]c5ccccc45)c(OC)cc2-3)ccc1OC(=O)[C@@H](N)Cc1c[nH]c2ccccc12 [Compound 24] |  | 806 | 2200 |  | 1670 | 6900 | 3390 |  |  |  |  |  |  |  | LC50 (concentration giving 50% net cell killing) [1]: 5970 nM
COc1cc(-c2c3n(c4c(=O)oc5cc(O)c(OC)cc5c24)CCc2cc(O)c(OC)cc2-3)ccc1O [Compound 109] |  |  |  |  |  |  |  |  | 2490 | 19900 | 11800 | 19900 | 917 | 19900 | 
